For one series, the system named is T. b. rhodesiense. In words: Treatment of mice infected with T. b. rhodesiense (cure and survival). The conditions noted are these: for Cured/Infected: i.p., five doses at 6 hour interval. In kind it is in vivo. Here is the method: Mice were infected with T. b. rhodesiense, a protozoan that causes acute symptoms at 1×10^3 cells/mouse, administration of medication in mice was started 24 hours after the infection, and the mice received five doses of each drug at the dosing interval of 6 hours. Mice were all infected and treated intraperitoneally (i.p). Mice that have no Trypanosomatid protozoan in the blood and survive even 60 days or more after the end of treatment were determined to be cured. Survival days represents an average survival time after treatment in mice that died from infection; therefore, survival days for the group of cured mice are not described in Table 2.

Series [1] concerns glycerol-3-phosphate-dependent respiration. The conditions noted are these: mitochondrial specimen of T. brucei brucei multiplied in the rat bloodstream; cited from earlier work.
The target of series [2] is T1, recombinant Trypanosome AOX (TAO) enzyme (Trypanosoma brucei brucei, UniProt Q26710).
T1 construct: made in house; host or cells: Escherichia coli (membrane fraction)
T1 sequence (Q26710 whole entry): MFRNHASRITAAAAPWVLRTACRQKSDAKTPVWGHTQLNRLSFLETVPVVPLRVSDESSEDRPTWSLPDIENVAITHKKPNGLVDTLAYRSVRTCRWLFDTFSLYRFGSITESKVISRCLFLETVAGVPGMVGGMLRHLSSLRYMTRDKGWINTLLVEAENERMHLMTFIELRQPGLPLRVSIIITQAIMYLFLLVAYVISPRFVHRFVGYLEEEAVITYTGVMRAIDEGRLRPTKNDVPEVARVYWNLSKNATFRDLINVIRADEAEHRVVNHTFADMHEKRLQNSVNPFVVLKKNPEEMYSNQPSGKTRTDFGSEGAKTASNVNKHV
Briefly: TAO enzyme inhibition (quinol oxidase activity, ubiquinol-1 substrate). The following applies: TAO-expressing E. coli membrane fraction, 25° C., ubiquinol-1, absorbance at 278 nm. The format is biochemical, T. brucei brucei. Put shortly:
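E. coli membranes expressing T. brucei brucei TAO (0.35 ng) pre-incubated with inhibitor in 50 mM Tris-HCl pH 7.5, 4 min at 25 °C. Reaction started with ubiquinol-1; quinol oxidation followed as absorbance change at 278 nm.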

The test system of a further series is T. b. rhodesiense IL1501. Briefly: Antiprotozoal effect, MIC measurement in HMI-9 culture. The format is cell-based. The following applies: Trypanosoma brucei, RHODESIENSE, 24 h, bloodstream forms, 18 + 6 hours culture. Summed up: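 Bloodstream-form T. b. rhodesiense IL1501 were grown in HMI-9 medium at 37° C. with 5% CO2. Three-fold serial drug dilutions from DMSO stocks were made in 96-well plates in HMI-9, with or without glycerol (final 5 mM), and 5×10^4 cells/well added. After 18 hours plus 6 more hours of culture, wells were checked by microscope; MIC was the lowest concentration showing no motile survivors.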

Series [3] concerns the target Cryptosporidium cyanide insensitive oxidase (AOX), recombinant protein (cCpAOX) (Cryptosporidium parvum, UniProt Q761U6). Briefly: CpAOX enzyme inhibition. In kind it is biochemical. The text has this: Cryptosporidium has found to have cyanide insensitive oxidase (AOX), and its inhibitory activity was observed using its recombinant protein (cCpAOX) produced in E. coli.

[4] abbreviates: Glycerol (+), final concentration of glycerol of 5 mM.

Molecules are shown by their SMILES.

Chain of Cryptosporidium cyanide insensitive oxidase (AOX), recombinant protein (cCpAOX) (Q761U6 entry or part of it): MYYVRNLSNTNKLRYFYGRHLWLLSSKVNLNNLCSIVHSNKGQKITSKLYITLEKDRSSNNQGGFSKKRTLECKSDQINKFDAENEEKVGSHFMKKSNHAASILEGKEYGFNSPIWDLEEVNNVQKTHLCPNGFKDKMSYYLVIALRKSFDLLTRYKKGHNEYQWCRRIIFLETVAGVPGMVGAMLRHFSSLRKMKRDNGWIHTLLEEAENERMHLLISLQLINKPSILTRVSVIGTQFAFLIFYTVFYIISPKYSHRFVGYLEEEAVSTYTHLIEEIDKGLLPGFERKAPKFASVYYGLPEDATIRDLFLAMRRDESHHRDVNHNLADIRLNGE

`C/C(=C\Cc1c(O)c(Cl)c(C)c(C=O)c1O)CC/C=C(\C)[C@@H]1CC(=O)C(C)(C)O1` (racemic) [Ascofuranone, dl-5-Chloro-2,4-dihydroxy-6-methyl-3-[(2E,6E)-3-methyl-7-(3,3-dimethyl-4-oxo-2-oxacyclopentyl)-2,6-octadienyl]benzaldehyde]: the Survival days was determined as 12 days in the series on T. b. rhodesiense (Glycerol dose 0, average survival time after treatment in mice that died from infection); 12 days in the series on T. b. rhodesiense (Glycerol dose 50 mg/kg, average survival time of mice that died from infection); 21 days in the series on T. b. rhodesiense (Glycerol dose 750 mg/kg, average survival time of mice that died from infection). Moreover, the Cured/Infected is 0/5 in the series on T. b. rhodesiense (Glycerol dose 0, start 24 hours after infection, cured = no protozoan in blood and survival 60 days or more); 0/5 in the series with T. b. rhodesiense (Glycerol dose 50 mg/kg); 2/3 with T. b. rhodesiense (Glycerol dose 750 mg/kg); 5/5 in the series on T. b. rhodesiense (Glycerol dose 1.25 g/kg). Further, the “absolute amounts of 50% inhibition” value in series [1] is reported as 25 pmol/mg protein.
For `CCCC[C@H]1C(=O)O[C@H](C)[C@H](NC(=O)c2cccc(NC=O)c2O)C(=O)O[C@@H](C)[C@@H]1OC(=O)CC(C)C` [Antimycin A3], the “absolute amounts of 50% inhibition” value in series [1] is given as 48,600 pmol/mg protein.
Take `C/C(=C\Cc1c(O)c(Cl)c(C)c(C=O)c1O)CC/C=C(\C)COC(=O)C(C)(C)C` [Compound 234-12-OPiv, (2E,6E)-8-(3-Chloro-5-formyl-2,6-dihydroxy-4-methylphenyl)-2,6-dimethyl-2,6-octadienyl pivalate]: the Cured/Infected with T. b. rhodesiense (Glycerol dose 1.25 g/kg) is on record as 5/5. For the same compound, the half-inhibitory concentration (IC50) (commonly the midpoint of a concentration-inhibition curve) in series [2] came to 0.4 nM. The figures for the MIC in the series with T. b. rhodesiense IL1501 (setting [4]) and in the series with T. b. rhodesiense IL1501 (Glycerol (−)) were 0.031 nM and 0.39 nM, respectively.
`CC(=O)/C(C)=C/CC/C(C)=C/Cc1c(O)c(Cl)c(C)c(C=O)c1O` [Compound 276-9]: the melting point – broadly, the temperature, or range, at which the solid turns liquid – was 119 to 120 °C. Moreover, the IC50 in series [2] is 1.2 nM. For the same compound, the IC50 in series [3] was determined as 2.1 nM. The minimal inhibitory concentration (MIC) (usually the lowest concentration found to suppress growth) with T. b. rhodesiense IL1501 (setting [4]) was found to be 0.53 nM. For the same compound, the MIC with T. b. rhodesiense IL1501 (Glycerol (−)) came out at 13 nM.
In the case of `C/C(=C\Cc1c(O)c(Cl)c(C)c(C=O)c1O)CC/C=C(\C)C(C)O` (stereo not drawn) [Compound 277-9-OH], the Cured/Infected in the series on T. b. rhodesiense (Glycerol dose 1.25 g/kg) is recorded as 4/4. The IC50 was found to be 0.48 nM in series [2] and 2.5 nM in series [3]. The values for the MIC in the series with T. b. rhodesiense IL1501 (setting [4]) and in the series on T. b. rhodesiense IL1501 (Glycerol (−)) were 0.048 nM and 74 nM, respectively.
For `CC(=O)OC(C)/C(C)=C/CC/C(C)=C/Cc1c(O)c(Cl)c(C)c(C=O)c1O` (stereo not drawn) [Compound 277-11-OAc, (3E,7E)-9-(3-Chloro-5-formyl-2,6-dihydroxy-4-methyl)phenyl-3,7-dimethyl-3,7-nonadie2-yl acetate] the same measures were 4/4, 1.2 nM, 1.5 nM, 0.082 nM and 2.3 nM.
Consider `Cc1c(Cl)c(O)c(CCCCCCC(C)C)c(O)c1C=O` [Compound 279-8, 3-Chloro-4,6-dihydroxy-2-methyl-5-(7-methyloctyl)benzaldehyde], for which the melting point fell in the range of 93 to 94 °C. Moreover, the concentration for half-maximal inhibition (IC50) in series [2] worked out at 0.22 nM. Besides, the IC50 in series [3] came to 2.1 nM. The minimal inhibitory concentration (MIC) in the series on T. b. rhodesiense IL1501 (setting [4]) came to 7.3 nM. Further, in the series on T. b. rhodesiense IL1501 (Glycerol (−)), the minimal inhibitory concentration (MIC) was found to be 12 nM.
For `CCCCCC#CCc1c(O)c(Cl)c(C)c(C=O)c1O` [Compound 284-8, 3-Chloro-4,6-dihydroxy-5-(2-octynyl)-2-methylbenzaldehyde], the melting point lay within 135 to 136 °C. The IC50 in series [2] was determined as 0.3 nM. Further, the IC50 in series [3] was 1.9 nM. Moreover, in the series with T. b. rhodesiense IL1501 (setting [4]), the MIC was determined as 9.6 nM. The MIC with T. b. rhodesiense IL1501 (Glycerol (−)) is 92 nM.
Regarding `Cc1c(Cl)c(O)c(CCCCCCCCCC(=O)OCC2COC(C)(C)O2)c(O)c1C=O` (stereo not drawn) [Compound 502-16-G, 2,2-Dimethyl-1,3-dioxolanee-4-methyl 10-(3-chloro-5-formyl-2,6-dihydroxy-4-methylphenyl)decanoate], the melting point is 55 to 56 °C. The IC50 in series [2] came to 0.3 nM. Further, the half-inhibitory concentration (IC50) in series [3] worked out at 2.3 nM. Also, the minimum inhibitory concentration (MIC) in the series on T. b. rhodesiense IL1501 (setting [4]) is 1.2 nM. In addition, in the series with T. b. rhodesiense IL1501 (Glycerol (−)), the minimum inhibitory concentration (MIC) was found to be 12 nM.
For the compound `CO/C(=C/C(N)=O)[C@H](C)[C@H](/C=C/c1csc(-c2csc([C@@H](C)/C=C/C=C/C(C)C)n2)n1)OC` [myxothiazol], the “absolute amounts of 50% inhibition” value in series [1] is listed as 21,500 pmol/mg protein.
On to `C/C=C(C)/C=C/C=C/[C@H](OC)[C@@H](C)[C@@H](OC)[C@@H](C)CCc1oc2c(O)c(OC)cc(OC)c2c(=O)c1C` [stigmatellin], for which the “absolute amounts of 50% inhibition” value in series [1] is given as 18,600 pmol/mg protein.

The record behind these values is patent publication US9440913B2, “Dihydroxybenzene derivatives and antiprotozoal agent comprising same as active ingredient” (NAI INC., priority 2010, dated 2016).
